Experimental data as given in patent US20130137741A1 (ALCON RESEARCH, LTD., priority 2009, published 2013).

System: FGFR
Assay: Kinase inhibition, cell-free enzymatic assay
Type: biochemical
Settings: 1 mM ATP

IC50: > 12.5 µM
SMILES: Cc1ccc(F)c(NC(=O)Nc2ccc(-c3cccc4[nH]nc(N)c34)cc2)c1 [RTK Inhibitor, N-[4-(3-amino-1H-indazol-4-yl)phenyl]-N′-(2-fluoro-5-methylphenyl) urea]
